Columns and labels:
[1] = test system: winter barley; assay: Test C postemergence test; format: in vivo, Hordeum vulgare; details: for Plant response rating (0 to 100), Barley: 31 g ai/ha; for Plant response rating, Barley: scale 0 to 100, 0 no effect, 100 complete control
Protocol: (§1) At the same time, plants selected from these crop and weed species and also winter barley (Hordeum vulgare), canarygrass (Phalaris minor), and chickweed (Stellaria media) were treated with postemergence applications of some of the test chemicals formulated in the same manner. Plants ranged in height from 2 to 18 cm (1- to 4-leaf stage) for postemergence treatments. […] At time of treatment, test pots were flooded to 3 cm above the soil surface, treated by application of test compounds directly to the paddy water, and then maintained at that water depth for the duration of the test. Treated plants and controls were maintained in a greenhouse for 13 to 15 days, after which time all species were compared to controls and visually evaluated. […] A dash (-) response means no test result.

[2] = test system: spanishneedles; assay: Test F preemergence test; format: in vivo, Bidens bipinnata; details: scale 0 to 100
Description: (§2) Seeds of plant species selected from bermudagrass (Cynodon dactylon), Surinam grass (Brachiaria decumbens), large crabgrass (Digitaria sanguinalis), green foxtail (Setaria viridis), goosegrass (Eleusine indica), johnsongrass (Sorghum halepense), kochia (Kochia scoparia), pitted morningglory (Ipomoea lacunosa), purple nutsedge (Cyperus rotundus), common ragweed (Ambrosia elation), mustard (Brassica nigra), guineagrass (Panicum maximum), […] (Paspalum dilatatum), barnyardgrass (Echinochloa crus-galli), southern sandbur (Cenchrus echinatus), common sowthistle (Sonchus oleraceous), prickly […] spinosa), Italian ryegrass (Lolium multiflorum), common purslane (Portulaca oleracea), broadleaf signalgrass (Brachiaria platyphylla), common groundsel (Senecio vulgaris), common chickweed (Stellaria media), Virginia dayflower (Commelina virginica), annual bluegrass (Poa annua), naked crabgrass (Digitaria nuda), […] cochinchinensis), quackgrass (Elytrigia repens), Canada horseweed (Conyza canadensis), field bindweed (Convolvulus arvensis), […] (Bidens bipinnata), common mallow (Malva sylvestris), Russian thistle (Salsola kali), and sugarcane (Saccharum officinarum) were planted and treated preemergence with test chemicals formulated in a non-phytotoxic solvent mixture which included a surfactant. At a different time, sugarcane was treated with postemergence applications of some of the test chemicals formulated in the same manner. Plants were approximately 3- to 4-leaf stage for the postemergence treatments. Treated plants and controls were maintained in a greenhouse for 14 to 21 days, after which time all species were compared to controls and visually evaluated. […] A dash (-) response means no test result.

[3] = test system: canarygrass; assay: Test C postemergence test; format: in vivo, Phalaris minor; details: for Plant response rating (0 to 100), Canarygrass: 31 g ai/ha; for Plant response rating, Canarygrass: scale 0 to 100, 0 no effect, 100 complete control
Protocol: as §1

[4] = test system: chickweed; assay: Test C postemergence test; format: in vivo, Stellaria media; details: for Plant response rating (0 to 100), Chickweed: 31 g ai/ha; for Plant response rating, Chickweed: scale 0 to 100, 0 no effect, 100 complete control
Protocol: as §1

[5] = test system: common chickweed; assay: Test F preemergence test; format: in vivo, Stellaria media; details: scale 0 to 100
Description: as §2

[6] = test system: common sowthistle; assay: Test F preemergence test; format: in vivo, Sonchus oleraceous; details: scale 0 to 100
Description: as §2

[7] = test system: Canada horseweed; assay: Test F preemergence test; format: in vivo, Conyza canadensis; details: scale 0 to 100
Description: as §2

| Compound | Plant response rating (0 to 100), Barley [1] | Plant response rating, Barley ([1]; 62 g ai/ha) | Plant response rating, Barley ([1]; 125 g ai/ha) | Plant response rating, Barley ([1]; 250 g ai/ha) | Spanishneedles plant response rating ([2]; 125 g ai/ha, preemergence) | Spanishneedles plant response rating ([2]; 250 g ai/ha, preemergence) | Plant response rating, Spanishneedles ([2]; Preemergence, 62 g ai/ha) | Plant response rating, Spanishneedles ([2]; Preemergence, 31 g ai/ha) | Plant response rating (0 to 100), Canarygrass [3] | Plant response rating, Canarygrass ([3]; 62 g ai/ha) | Plant response rating, Canarygrass ([3]; 125 g ai/ha) | Chickweed plant response rating ([5]; 62 g ai/ha, Preemergence) | Chickweed plant response rating ([5]; 125 g ai/ha, preemergence) | Sowthistle plant response rating ([6]; 125 g ai/ha, preemergence) | Plant response rating, Sowthistle ([6]; Preemergence, 62 g ai/ha) | Plant response rating, Sowthistle ([6]; Preemergence, 31 g ai/ha) | Horseweed plant response rating ([7]; 62 g ai/ha, Preemergence) | Horseweed plant response rating ([7]; 125 g ai/ha, preemergence) | Plant response rating, Horseweed ([7]; Preemergence, 31 g ai/ha) | Plant response rating, Chickweed ([5]; Preemergence, 31 g ai/ha) | other results |
| --- | --- | --- | --- | --- | --- | --- | --- | --- | --- | --- | --- | --- | --- | --- | --- | --- | --- | --- | --- | --- | --- |
| Cn1nc(C(F)(F)F)c(C[S+]([O-])c2ccc(F)c[n+]2[O-])c1OC(F)F (stereo not drawn) [Compound 58] | 0 | 0 | 20 | 30 | 65 | 100 | 50 | 50 | 0 | 0 | 0 | 95 | 100 | 100 | 100 | 0 | 98 | 98 | 98 | – | Plant response rating, Canarygrass ([3]; 250 g ai/ha): 0; Plant response rating (0 to 100), Chickweed [4]: 30; Plant response rating, Chickweed ([4]; 62 g ai/ha): 60; Plant response rating, Chickweed ([4]; 125 g ai/ha): 60; Chickweed plant response rating ([5]; 250 g ai/ha, preemergence): 100; Sowthistle plant response rating ([6]; 250 g ai/ha, preemergence): 100; Horseweed plant response rating ([7]; 250 g ai/ha, preemergence): 100 |
| CCn1nc(C(F)(F)F)c(C[S+]([O-])c2cc(C)cc[n+]2[O-])c1OCC(F)(F)F (racemic) [Compound 66] | – | – | – | – | 100 | – | 80 | 65 | – | – | – | 100 | 100 | 100 | 100 | 0 | 90 | 100 | 50 | 100 | Plant response rating, Spanishneedles ([2]; 16 g ai/ha, preemergence): 15; Plant response rating, Chickweed ([5]; 16 g ai/ha, preemergence): 100; Plant response rating, Sowthistle ([6]; 16 g ai/ha, preemergence): 0; Plant response rating, Horseweed ([7]; 16 g ai/ha, preemergence): 50 |
| CCn1nc(C(F)(F)F)c(CS(=O)(=O)c2cc(C)cc[n+]2[O-])c1OCC(F)(F)F [Compound 64] | 0 | 0 | 5 | 20 | 60 | – | 40 | – | 0 | 0 | 5 | 100 | 100 | 100 | 100 | 0 | 50 | 100 | 0 | 100 | Plant response rating, Spanishneedles ([2]; 16 g ai/ha, preemergence): 30; Plant response rating, Canarygrass ([3]; 250 g ai/ha): 10; Plant response rating (0 to 100), Chickweed [4]: 0; Plant response rating, Chickweed ([4]; 62 g ai/ha): 0; Plant response rating, Chickweed ([4]; 125 g ai/ha): 0; Plant response rating, Chickweed ([4]; 250 g ai/ha): 0; Plant response rating, Chickweed ([5]; 16 g ai/ha, preemergence): 65; Plant response rating, Horseweed ([7]; 16 g ai/ha, preemergence): 0 |
| CCc1cc[n+]([O-])c(S(=O)(=O)Cc2c(C(F)(F)F)nn(C)c2OCC(F)(F)F)c1 [Compound 60] | – | – | – | – | 80 | 100 | 80 | 20 | – | – | – | 100 | 100 | 100 | 100 | 80 | 100 | 100 | 95 | 100 | Chickweed plant response rating ([5]; 250 g ai/ha, preemergence): 100; Sowthistle plant response rating ([6]; 250 g ai/ha, preemergence): 100; Horseweed plant response rating ([7]; 250 g ai/ha, preemergence): 100 |

From patent US20100298141A1, “SUBSTITUTED PYRIDINE N-OXIDE HERBICIDES” (E. I. DU PONT DE NEMOURS AND COMPANY, priority 2007, published 2010)
